{"source": "patent US20200239530A1", "about": "“COMPOUNDS AND METHODS OF MODULATING PROTEIN DEGRADATION” (Vividion Therapeutics, Inc., priority 2017, published 2020)", "assay_in_all_cases": "Cysteine liganding, probe competition", "type_in_all_cases": "binding", "key": {"[1]": {"target": "T1, UniProt O14543 (Homo sapiens, UniProt O14543)", "T1 construct": "200 μL of lysate containing 5 mg/ml proteome was treated with 2 μL of 100× compound stock; endogenous in cells", "T1 sequence (O14543 whole entry, change not shown)": "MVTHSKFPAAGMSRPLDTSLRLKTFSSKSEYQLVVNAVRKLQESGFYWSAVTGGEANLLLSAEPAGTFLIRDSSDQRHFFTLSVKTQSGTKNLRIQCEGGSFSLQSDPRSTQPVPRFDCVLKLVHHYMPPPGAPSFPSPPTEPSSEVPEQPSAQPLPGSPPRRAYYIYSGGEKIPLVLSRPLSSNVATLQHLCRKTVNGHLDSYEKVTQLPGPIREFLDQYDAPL", "source_text": "(§1) The following 96-well sample prep protocol was used for sample preparation."}, "[2]": {"target": "T2, UniProt O43791 (Homo sapiens, UniProt O43791)", "T2 construct": "200 μL of lysate containing 5 mg/ml proteome was treated with 2 μL of 100× compound stock; endogenous in cells", "T2 sequence (O43791 whole entry, change not shown)": "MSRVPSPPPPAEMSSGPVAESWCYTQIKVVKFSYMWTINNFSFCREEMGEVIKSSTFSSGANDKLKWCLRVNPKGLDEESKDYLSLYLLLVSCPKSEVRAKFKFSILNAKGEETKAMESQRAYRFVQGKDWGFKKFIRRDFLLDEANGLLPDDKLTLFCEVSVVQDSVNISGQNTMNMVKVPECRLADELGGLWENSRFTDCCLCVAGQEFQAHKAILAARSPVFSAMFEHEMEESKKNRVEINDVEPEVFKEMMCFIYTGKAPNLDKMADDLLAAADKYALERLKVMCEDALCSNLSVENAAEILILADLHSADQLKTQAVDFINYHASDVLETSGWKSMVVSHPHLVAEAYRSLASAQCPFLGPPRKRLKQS", "source_text": "as §1"}, "[3]": {"target": "T3, UniProt Q495X7 (Homo sapiens, UniProt Q495X7)", "T3 construct": "200 μL of lysate containing 5 mg/ml proteome was treated with 2 μL of 100× compound stock; endogenous in cells", "T3 sequence (Q495X7 1-471)": "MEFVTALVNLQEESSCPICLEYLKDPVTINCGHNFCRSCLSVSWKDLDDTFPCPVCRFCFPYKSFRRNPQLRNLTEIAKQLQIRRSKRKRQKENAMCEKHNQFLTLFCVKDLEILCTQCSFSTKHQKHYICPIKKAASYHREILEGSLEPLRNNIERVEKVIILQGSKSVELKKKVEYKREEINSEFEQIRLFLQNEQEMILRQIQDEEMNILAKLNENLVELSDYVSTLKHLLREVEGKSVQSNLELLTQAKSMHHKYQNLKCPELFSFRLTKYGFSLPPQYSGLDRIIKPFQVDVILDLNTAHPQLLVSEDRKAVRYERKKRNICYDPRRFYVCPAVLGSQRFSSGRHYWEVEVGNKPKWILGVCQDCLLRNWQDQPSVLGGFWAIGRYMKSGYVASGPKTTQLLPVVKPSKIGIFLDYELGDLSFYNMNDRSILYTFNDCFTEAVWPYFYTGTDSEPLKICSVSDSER", "source_text": "as §1"}, "[4]": {"target": "T4, UniProt Q6VVB1 (Homo sapiens, UniProt Q6VVB1)", "T4 construct": "Cells were resuspended in cold PBS on ice and sonicated with a probe sonicator to achieve lysis; endogenous in cells", "T4 sequence (Q6VVB1 whole entry, change not shown)": "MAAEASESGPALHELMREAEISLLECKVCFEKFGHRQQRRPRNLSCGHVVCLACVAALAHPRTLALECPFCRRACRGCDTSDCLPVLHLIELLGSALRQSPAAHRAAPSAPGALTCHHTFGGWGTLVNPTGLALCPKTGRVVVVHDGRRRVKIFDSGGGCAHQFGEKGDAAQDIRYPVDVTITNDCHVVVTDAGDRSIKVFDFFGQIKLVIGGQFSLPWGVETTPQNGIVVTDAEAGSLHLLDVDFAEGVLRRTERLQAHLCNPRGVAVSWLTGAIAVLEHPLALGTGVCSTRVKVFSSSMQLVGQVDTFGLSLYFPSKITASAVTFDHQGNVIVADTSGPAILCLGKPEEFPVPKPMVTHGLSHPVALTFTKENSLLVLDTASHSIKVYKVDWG", "source_text": "as §1"}, "[5]": {"target": "T5, UniProt Q8TEL6 (Homo sapiens, UniProt Q8TEL6)", "T5 construct": "200 μL of lysate containing 5 mg/ml proteome was treated with 2 μL of 100× compound stock; endogenous in cells", "T5 sequence (Q8TEL6 1-797)": "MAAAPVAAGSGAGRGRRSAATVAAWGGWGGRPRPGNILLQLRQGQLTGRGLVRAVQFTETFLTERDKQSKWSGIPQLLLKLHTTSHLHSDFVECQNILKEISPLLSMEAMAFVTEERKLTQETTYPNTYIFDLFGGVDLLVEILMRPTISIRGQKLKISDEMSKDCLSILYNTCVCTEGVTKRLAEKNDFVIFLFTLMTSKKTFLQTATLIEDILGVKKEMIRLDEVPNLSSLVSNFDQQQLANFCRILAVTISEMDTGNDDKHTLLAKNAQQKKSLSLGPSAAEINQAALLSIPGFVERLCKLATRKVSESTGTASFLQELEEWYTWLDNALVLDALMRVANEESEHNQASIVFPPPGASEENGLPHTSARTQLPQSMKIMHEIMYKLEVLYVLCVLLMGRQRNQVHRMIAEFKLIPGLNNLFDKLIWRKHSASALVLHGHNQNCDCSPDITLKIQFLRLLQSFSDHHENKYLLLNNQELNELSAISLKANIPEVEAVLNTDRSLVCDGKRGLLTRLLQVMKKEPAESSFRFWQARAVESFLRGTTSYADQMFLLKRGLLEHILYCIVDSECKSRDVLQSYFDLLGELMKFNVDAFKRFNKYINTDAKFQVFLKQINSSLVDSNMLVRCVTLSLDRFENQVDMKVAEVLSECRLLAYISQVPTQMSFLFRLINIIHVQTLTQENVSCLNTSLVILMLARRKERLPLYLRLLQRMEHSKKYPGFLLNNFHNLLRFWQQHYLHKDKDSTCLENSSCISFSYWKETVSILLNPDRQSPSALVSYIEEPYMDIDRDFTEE", "source_text": "as §1"}, "[6]": {"target": "T6, UniProt Q9BWF2 (Homo sapiens, UniProt Q9BWF2)", "T6 construct": "200 μL of lysate containing 5 mg/ml proteome was treated with 2 μL of 100× compound stock; endogenous in cells", "T6 sequence (Q9BWF2 1-469)": "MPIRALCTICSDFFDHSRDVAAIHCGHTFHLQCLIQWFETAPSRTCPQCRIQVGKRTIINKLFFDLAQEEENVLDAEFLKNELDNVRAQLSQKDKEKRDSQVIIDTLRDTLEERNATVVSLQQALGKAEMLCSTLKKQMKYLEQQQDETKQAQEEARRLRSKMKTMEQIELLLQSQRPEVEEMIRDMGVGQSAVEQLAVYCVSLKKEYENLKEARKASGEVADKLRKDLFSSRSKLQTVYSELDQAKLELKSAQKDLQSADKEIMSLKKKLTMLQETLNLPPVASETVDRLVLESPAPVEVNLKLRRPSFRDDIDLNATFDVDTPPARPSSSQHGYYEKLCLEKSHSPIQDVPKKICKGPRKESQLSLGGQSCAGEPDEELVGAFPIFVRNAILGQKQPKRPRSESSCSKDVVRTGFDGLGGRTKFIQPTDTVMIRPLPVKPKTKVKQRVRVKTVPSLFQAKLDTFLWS", "source_text": "as §1"}, "[7]": {"target": "T7, UniProt Q9C026 (Homo sapiens, UniProt Q9C026)", "T7 construct": "200 μL of lysate containing 5 mg/ml proteome was treated with 2 μL of 100× compound stock; endogenous in cells", "T7 sequence (Q9C026 whole entry, change not shown)": "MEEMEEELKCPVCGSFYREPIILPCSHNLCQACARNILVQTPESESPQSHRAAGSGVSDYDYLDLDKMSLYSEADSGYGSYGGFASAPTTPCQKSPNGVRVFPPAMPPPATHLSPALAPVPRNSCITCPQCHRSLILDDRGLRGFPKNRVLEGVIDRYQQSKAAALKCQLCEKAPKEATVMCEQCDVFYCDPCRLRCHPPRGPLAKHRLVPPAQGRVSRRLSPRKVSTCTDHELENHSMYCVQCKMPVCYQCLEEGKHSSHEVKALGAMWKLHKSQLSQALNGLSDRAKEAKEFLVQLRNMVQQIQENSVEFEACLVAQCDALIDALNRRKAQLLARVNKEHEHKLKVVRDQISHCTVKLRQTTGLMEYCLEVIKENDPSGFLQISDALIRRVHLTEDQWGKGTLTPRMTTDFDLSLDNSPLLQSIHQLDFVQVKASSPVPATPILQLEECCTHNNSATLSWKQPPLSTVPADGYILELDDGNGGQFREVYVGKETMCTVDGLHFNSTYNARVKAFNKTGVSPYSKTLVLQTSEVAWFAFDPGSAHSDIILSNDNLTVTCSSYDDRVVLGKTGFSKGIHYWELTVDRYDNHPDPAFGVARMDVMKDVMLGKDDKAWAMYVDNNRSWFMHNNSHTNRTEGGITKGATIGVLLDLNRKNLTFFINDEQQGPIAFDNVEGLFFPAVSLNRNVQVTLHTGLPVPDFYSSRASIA", "source_text": "as §1"}, "[8]": {"target": "T8, UniProt Q13233 (Homo sapiens, UniProt Q13233)", "T8 construct": "Cells were resuspended in cold PBS on ice and sonicated with a probe sonicator to achieve lysis; endogenous in cells", "T8 sequence (Q13233 whole entry, change not shown)": "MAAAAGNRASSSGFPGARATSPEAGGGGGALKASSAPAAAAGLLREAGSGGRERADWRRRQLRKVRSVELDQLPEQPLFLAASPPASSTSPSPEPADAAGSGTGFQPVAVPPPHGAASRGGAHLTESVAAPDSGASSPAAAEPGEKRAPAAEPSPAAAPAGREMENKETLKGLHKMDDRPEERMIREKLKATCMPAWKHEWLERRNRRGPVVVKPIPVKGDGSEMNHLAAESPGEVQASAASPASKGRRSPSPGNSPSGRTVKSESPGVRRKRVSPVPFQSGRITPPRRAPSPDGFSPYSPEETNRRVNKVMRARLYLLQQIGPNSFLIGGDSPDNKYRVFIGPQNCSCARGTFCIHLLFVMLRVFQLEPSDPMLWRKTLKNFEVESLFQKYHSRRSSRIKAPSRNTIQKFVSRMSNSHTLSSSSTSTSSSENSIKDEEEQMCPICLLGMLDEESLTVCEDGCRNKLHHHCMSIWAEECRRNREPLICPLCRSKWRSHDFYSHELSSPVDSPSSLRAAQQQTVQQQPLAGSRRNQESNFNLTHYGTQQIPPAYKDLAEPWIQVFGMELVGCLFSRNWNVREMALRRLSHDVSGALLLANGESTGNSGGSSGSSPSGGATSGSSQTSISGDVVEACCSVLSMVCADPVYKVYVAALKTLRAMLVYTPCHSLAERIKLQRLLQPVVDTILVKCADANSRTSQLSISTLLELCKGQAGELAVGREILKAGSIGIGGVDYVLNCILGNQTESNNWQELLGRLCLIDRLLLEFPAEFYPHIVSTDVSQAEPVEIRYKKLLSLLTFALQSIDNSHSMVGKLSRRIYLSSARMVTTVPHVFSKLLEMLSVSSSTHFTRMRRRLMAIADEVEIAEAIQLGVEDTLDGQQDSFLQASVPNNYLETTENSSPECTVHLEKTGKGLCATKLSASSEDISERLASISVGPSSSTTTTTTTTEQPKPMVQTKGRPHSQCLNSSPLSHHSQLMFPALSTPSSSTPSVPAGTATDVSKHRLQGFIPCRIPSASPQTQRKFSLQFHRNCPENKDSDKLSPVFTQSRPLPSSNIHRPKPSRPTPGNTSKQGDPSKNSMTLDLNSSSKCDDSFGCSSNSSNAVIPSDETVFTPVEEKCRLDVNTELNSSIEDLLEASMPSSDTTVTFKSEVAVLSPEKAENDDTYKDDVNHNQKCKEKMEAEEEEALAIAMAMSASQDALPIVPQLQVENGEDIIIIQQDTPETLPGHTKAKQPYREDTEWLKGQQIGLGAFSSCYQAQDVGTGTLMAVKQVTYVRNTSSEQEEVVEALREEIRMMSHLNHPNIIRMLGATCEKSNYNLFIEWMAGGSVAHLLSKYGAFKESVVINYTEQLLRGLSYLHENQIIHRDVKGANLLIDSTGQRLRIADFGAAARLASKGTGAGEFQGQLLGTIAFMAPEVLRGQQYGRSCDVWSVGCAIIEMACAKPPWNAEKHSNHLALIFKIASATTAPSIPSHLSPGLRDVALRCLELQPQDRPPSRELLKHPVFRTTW", "source_text": "as §1"}, "[9]": {"target": "T9, UniProt Q8IY92 (Homo sapiens, UniProt Q8IY92)", "T9 construct": "200 μL of lysate containing 5 mg/ml proteome was treated with 2 μL of 100× compound stock; endogenous in cells", "T9 sequence (Q8IY92 whole entry, change not shown)": "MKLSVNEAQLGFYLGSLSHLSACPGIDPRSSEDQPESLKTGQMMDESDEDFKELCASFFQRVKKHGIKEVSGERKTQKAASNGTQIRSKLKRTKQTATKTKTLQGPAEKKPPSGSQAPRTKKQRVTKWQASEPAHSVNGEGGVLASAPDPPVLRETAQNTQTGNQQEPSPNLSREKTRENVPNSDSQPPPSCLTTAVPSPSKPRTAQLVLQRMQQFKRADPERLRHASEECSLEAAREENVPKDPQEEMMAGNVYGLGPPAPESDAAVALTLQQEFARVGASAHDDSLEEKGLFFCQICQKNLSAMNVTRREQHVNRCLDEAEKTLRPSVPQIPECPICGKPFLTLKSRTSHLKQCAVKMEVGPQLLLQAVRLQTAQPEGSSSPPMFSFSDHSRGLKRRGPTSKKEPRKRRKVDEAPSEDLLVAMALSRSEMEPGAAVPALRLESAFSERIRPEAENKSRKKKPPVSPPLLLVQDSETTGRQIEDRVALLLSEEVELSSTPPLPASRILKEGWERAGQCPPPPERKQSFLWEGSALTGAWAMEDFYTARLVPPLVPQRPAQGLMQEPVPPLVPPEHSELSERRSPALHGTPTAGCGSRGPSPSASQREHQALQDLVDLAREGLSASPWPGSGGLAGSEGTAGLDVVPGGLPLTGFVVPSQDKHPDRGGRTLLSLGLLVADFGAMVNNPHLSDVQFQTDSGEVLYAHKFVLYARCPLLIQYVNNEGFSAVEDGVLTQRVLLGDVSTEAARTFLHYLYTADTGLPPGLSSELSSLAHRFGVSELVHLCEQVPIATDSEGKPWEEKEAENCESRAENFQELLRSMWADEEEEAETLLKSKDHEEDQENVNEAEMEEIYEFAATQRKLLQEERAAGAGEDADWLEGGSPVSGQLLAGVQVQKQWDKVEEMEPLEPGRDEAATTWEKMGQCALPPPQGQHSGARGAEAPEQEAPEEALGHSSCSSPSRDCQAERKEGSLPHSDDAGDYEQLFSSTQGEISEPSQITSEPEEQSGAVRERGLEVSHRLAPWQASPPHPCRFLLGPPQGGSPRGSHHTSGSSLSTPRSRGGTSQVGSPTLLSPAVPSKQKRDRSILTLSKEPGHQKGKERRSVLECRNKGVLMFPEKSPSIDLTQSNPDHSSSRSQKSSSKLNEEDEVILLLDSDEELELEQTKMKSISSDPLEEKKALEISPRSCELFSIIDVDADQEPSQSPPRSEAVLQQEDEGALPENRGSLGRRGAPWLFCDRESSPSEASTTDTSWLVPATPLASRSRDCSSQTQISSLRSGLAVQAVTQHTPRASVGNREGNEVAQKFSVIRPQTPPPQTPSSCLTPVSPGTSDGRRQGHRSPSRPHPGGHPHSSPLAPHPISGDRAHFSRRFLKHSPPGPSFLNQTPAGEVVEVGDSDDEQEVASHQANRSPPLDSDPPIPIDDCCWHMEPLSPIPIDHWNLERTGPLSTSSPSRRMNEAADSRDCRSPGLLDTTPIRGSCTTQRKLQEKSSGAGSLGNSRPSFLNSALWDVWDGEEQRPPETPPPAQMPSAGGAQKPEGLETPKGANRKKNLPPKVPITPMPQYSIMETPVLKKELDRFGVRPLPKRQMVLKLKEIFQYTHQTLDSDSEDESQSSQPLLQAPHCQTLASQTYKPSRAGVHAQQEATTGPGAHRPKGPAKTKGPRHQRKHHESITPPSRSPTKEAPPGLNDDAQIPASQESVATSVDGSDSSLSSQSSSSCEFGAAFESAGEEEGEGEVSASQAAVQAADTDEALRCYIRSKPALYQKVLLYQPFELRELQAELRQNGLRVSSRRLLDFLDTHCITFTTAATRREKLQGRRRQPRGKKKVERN", "source_text": "as §1"}, "[10]": {"target": "T10, UniProt Q9BSL1 (Homo sapiens, UniProt Q9BSL1)", "T10 construct": "200 μL of lysate containing 5 mg/ml proteome was treated with 2 μL of 100× compound stock; endogenous in cells", "T10 sequence (Q9BSL1 1-405)": "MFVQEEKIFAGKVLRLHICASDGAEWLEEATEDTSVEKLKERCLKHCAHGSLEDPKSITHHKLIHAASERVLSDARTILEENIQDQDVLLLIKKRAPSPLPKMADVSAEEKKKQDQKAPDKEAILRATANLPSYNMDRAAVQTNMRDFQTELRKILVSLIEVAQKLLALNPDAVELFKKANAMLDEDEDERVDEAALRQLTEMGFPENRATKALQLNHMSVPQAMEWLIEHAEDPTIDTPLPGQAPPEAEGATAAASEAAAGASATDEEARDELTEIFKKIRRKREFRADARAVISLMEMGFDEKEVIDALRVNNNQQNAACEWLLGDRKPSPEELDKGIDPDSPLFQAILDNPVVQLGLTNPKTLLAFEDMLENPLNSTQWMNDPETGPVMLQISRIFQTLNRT", "source_text": "as §1"}, "[11]": {"details": "100 uM, read-out: KB02_100 uM_percent_inhibition"}, "[12]": {"details": "500 uM, read-out: KB02_500 uM_percent_inhibition"}, "[13]": {"details": "500 uM, read-out: KB05_500 uM_percent_inhibition"}}, "note": "Read-outs that look alike come from different tables or passages of the source.", "data": [{"smiles": "COc1ccc2c(c1)CCCN2C(=O)CCl", "note": "[KB02]", "values": [{"measurement": "inhibition at 100 µM", "setting": "[1]; read-out: percent_inhibition", "value": 40, "unit": "%"}, {"measurement": "inhibition at 100 µM", "setting": "[2]; read-out: percent_inhibition", "value": 49, "unit": "%"}, {"measurement": "inhibition at 100 µM", "setting": "[3]; [11]", "value": 15, "unit": "%"}, {"measurement": "inhibition at 500 µM", "setting": "[3]; [12]", "value": 44, "unit": "%"}, {"measurement": "inhibition at 500 µM", "setting": "[4]; read-out: KB02_500 uM_percent_inhibition", "value": 9, "unit": "%"}, {"measurement": "inhibition at 100 µM", "setting": "[5]; [11]", "value": 1, "unit": "%"}, {"measurement": "inhibition at 100 µM", "setting": "[6]; [11]", "value": 10, "unit": "%"}, {"measurement": "KB02_500 uM_percent_inhibition", "setting": "[6]; 500 uM", "value": 52, "unit": "%"}, {"measurement": "inhibition at 500 µM", "setting": "[6]; [12]", "value": 36, "unit": "%"}, {"measurement": "KB02_500 uM_percent_inhibition", "setting": "[7]; 500 uM", "value": 69, "unit": "%"}, {"measurement": "inhibition at 500 µM", "setting": "[7]; [12]", "value": 64, "unit": "%"}]}, {"smiles": "C=CC(=O)N(c1ccccc1)c1ccc(Br)cc1", "note": "[KB05]", "values": [{"measurement": "inhibition at 100 µM", "setting": "[8]; read-out: percent inhibition", "value": 31, "unit": "%"}, {"measurement": "inhibition at 500 µM", "setting": "[4]; read-out: KB05_500 uM_percent_inhibition", "value": 15, "unit": "%"}, {"measurement": "inhibition at 100 µM", "setting": "[9]; read-out: percent_inhibition", "value": 10, "unit": "%"}, {"measurement": "KB05_500 uM_percent_inhibition", "setting": "[5]; 500 uM", "value": 61, "unit": "%"}, {"measurement": "inhibition at 500 µM", "setting": "[5]; [13]", "value": 77, "unit": "%"}, {"measurement": "inhibition at 100 µM", "setting": "[10]; 100 uM, read-out: KB05_100 uM_percent_inhibition", "value": 36, "unit": "%"}, {"measurement": "KB05_500 uM_percent_inhibition", "setting": "[10]; 500 uM", "value": 57, "unit": "%"}, {"measurement": "inhibition at 500 µM", "setting": "[10]; [13]", "value": 48, "unit": "%"}, {"measurement": "KB05_500 uM_percent_inhibition", "setting": "[6]; 500 uM", "value": 29, "unit": "%"}, {"measurement": "inhibition at 500 µM", "setting": "[6]; [13]", "value": 22, "unit": "%"}]}, {"smiles": "O=C(CCl)Nc1cc(C(F)(F)F)cc(C(F)(F)F)c1", "note": "[KBO3]", "values": [{"measurement": "percent_inhibition", "setting": "[1]; 100 uM", "value": 91, "unit": "%"}, {"measurement": "percent_inhibition", "setting": "[2]; 100 uM", "value": 57, "unit": "%"}, {"measurement": "percent inhibition", "setting": "[8]; 100 uM", "value": 19, "unit": "%"}, {"measurement": "KB03_100 uM_percent_inhibition", "setting": "[3]; 100 uM", "value": 27, "unit": "%"}, {"measurement": "KB03_500 uM_percent_inhibition", "setting": "[3]; 500 uM", "value": 43, "unit": "%"}, {"measurement": "percent_inhibition", "setting": "[9]; 100 uM", "value": 8, "unit": "%"}, {"measurement": "KB03_100 uM_percent_inhibition", "setting": "[10]; 100 uM", "value": 36, "unit": "%"}, {"measurement": "KB03_100 uM_percent_inhibition", "setting": "[7]; 100 uM", "value": 13, "unit": "%"}]}]}
